# Reference: patent US11000033B2, “Ketone or oxime compound, and herbicide” (NISSAN CHEMICAL CORPORATION, priority 2014, dated 2021)
# Legend:
# Type in all cases: in vivo
# Amaranthus retroflexus = experiment: Test Example 4: herbicidal effect by soil treatment (symbol N); conditions: application herbicide amount 320 g/ha
# Outline: (§1)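 Seeds were sown in sterilized diluvial soil, covered with about 1.5 cm of soil, and the soil surface was sprayed with a water-diluted emulsion of the compound at a predetermined rate. Plants grew in a greenhouse at 25° C. to 30° C.; effects were scored visually 3 weeks after application.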
# rapeseed = experiment: Test Example 5: effect on crop by foliage application, plastic box (symbol g); conditions: 320 g/ha, 3 weeks after application
# Outline: (§2)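 Crop and weed seeds sown in spots in sterilized diluvial soil in plastic boxes and covered with about 1.5 cm soil. Plants raised in a greenhouse at 25° C. to 30° C. for foliar application.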
# Lolium multiflorum Lam. = experiment: Test Example 4: herbicidal effect by soil treatment (symbol K); conditions: application herbicide amount 320 g/ha
# Outline: as §1
# Abutilon theophrasti [1] = experiment: Test Example 4: herbicidal effect by soil treatment (symbol M); conditions: application herbicide amount 320 g/ha
# Outline: as §1
# Stellaria media [2] = experiment: Test Example 5: herbicidal effect by foliage application, plastic box (symbol P); conditions: 320 g/ha, 3 weeks after application
# Outline: (§3)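 Leaf-applied emulsion, water-diluted to a preset herbicide dose, on two-week-old seedlings raised in a 25° C. to 30° C. greenhouse; injury rated at 3 weeks using earlier criteria.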
# Veronica persica = experiment: Test Example 4: herbicidal effect by soil treatment (symbol R); conditions: application herbicide amount 320 g/ha
# Outline: as §1
# [3] = tested on: Echinochloa crus-galli var. crus-galli; experiment: Test Example 3: herbicidal effect by foliage application, Wagner pot (symbol H); conditions: application herbicide amount 320 g/ha
# Outline: (§4)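 Plants sown in submerged alluvial soil (water depth 0.1–0.5 cm) in a 25–30 °C greenhouse and grown 14 days. An emulsion of the compound diluted in water to a set herbicide amount was sprayed uniformly on foliage. Effect on each plant scored 3 weeks after application.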
# Apera spica-venti [4] = experiment: Test Example 4: herbicidal effect by soil treatment (symbol L); conditions: application herbicide amount 320 g/ha
# Outline: as §1
# Apera spica-venti [5] = experiment: Test Example 5: herbicidal effect by foliage application, plastic box (symbol L); conditions: 320 g/ha, 3 weeks after application
# Outline: as §3
# [6] = tested on: directly sowed rice plant; experiment: Test Example 3: effect on crop by foliage application, Wagner pot (symbol b); conditions: application herbicide amount 320 g/ha
# Outline: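 Plants are raised from seed in flooded paddy conditions: water stands 0.1–0.5 cm over alluvial soil, and the pot is kept in a greenhouse at 25–30 °C. Species sown are barnyardgrass (E. crus-galli var. crus-galli), Leptochloa chinensis, Cyperus difformis and rice.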
# Abutilon theophrasti [7] = experiment: Test Example 5: herbicidal effect by foliage application, plastic box (symbol M); conditions: 320 g/ha, 3 weeks after application
# Outline: as §3
# [8] = tested on: Echinochloa crus-galli var. crus-galli; experiment: Test Example 5: herbicidal effect by foliage application, plastic box (symbol H); conditions: 320 g/ha, 3 weeks after application
# Outline: as §3
# Setaria viridis [9] = experiment: Test Example 4: herbicidal effect by soil treatment (symbol G); conditions: application herbicide amount 320 g/ha
# Outline: as §1
# rice plant = experiment: Test Example 5: effect on crop by foliage application, plastic box (symbol b); conditions: 320 g/ha, 3 weeks after application
# Outline: as §2
# Chenopodium album = experiment: Test Example 4: herbicidal effect by soil treatment (symbol O); conditions: application herbicide amount 320 g/ha
# Outline: as §1
# Stellaria media [10] = experiment: Test Example 4: herbicidal effect by soil treatment (symbol P); conditions: application herbicide amount 320 g/ha
# Outline: as §1
# Avena fatua = experiment: Test Example 5: herbicidal effect by foliage application, plastic box (symbol I); conditions: 320 g/ha, 3 weeks after application
# Outline: as §3
# Setaria viridis [11] = experiment: Test Example 5: herbicidal effect by foliage application, plastic box (symbol G); conditions: 320 g/ha, 3 weeks after application
# Outline: as §3
# Digitaria ciliaris = experiment: Test Example 4: herbicidal effect by soil treatment (symbol F); conditions: application herbicide amount 320 g/ha
# Outline: as §1
# Galium spurium = experiment: Test Example 4: herbicidal effect by soil treatment (symbol Q); conditions: application herbicide amount 320 g/ha
# Outline: as §1
# transplanted rice plant = experiment: Test Example 1: effect on crop, application before weed generation in submerged conditions (symbol a); conditions: application herbicide amount 320 g/ha
# Outline: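 Rice at 2.5 leaf stage transplanted into submerged soil (4 cm depth) sown with three weed species; herbicide applied before weed emergence.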
# beet = experiment: Test Example 5: effect on crop by foliage application, plastic box (symbol f); conditions: 320 g/ha, 3 weeks after application
# Outline: as §2
# Leptochloa chinensis = experiment: Test Example 3: herbicidal effect by foliage application, Wagner pot (symbol D); conditions: application herbicide amount 320 g/ha
# Outline: as §4
SMILES,"Herbicidal effect grade, N: Amaranthus retroflexus (Amaranthus retroflexus)","g: rapeseed, effect on crop (criteria of Test Example 1) (rapeseed)","Herbicidal effect grade, K: Lolium multiflorum Lam. (Lolium multiflorum Lam.)","Herbicidal effect grade, M: Abutilon theophrasti (Abutilon theophrasti [1])","P: Stellaria media, herbicidal effect (criteria of Test Example 1) (Stellaria media [2])","Herbicidal effect grade, R: Veronica persica (Veronica persica)","herbicidal effect on H (Echinochloa crus-galli var. crus-galli), grade 0-5 [3]","Herbicidal effect grade, L: Apera spica-venti (Apera spica-venti [4])","L: Apera spica-venti, herbicidal effect (criteria of Test Example 1) (Apera spica-venti [5])","effect on crop b (directly sowed rice plant), grade 0-5 [6]","M: Abutilon theophrasti, herbicidal effect (criteria of Test Example 1) (Abutilon theophrasti [7])","H: Echinochloa crus-galli var. crus-galli, herbicidal effect (criteria of Test Example 1) [8]","Herbicidal effect grade, G: Setaria viridis (Setaria viridis [9])","b: directly sowed rice plant, effect on crop (criteria of Test Example 1) (rice plant)","Herbicidal effect grade, O: Chenopodium album (Chenopodium album)","Herbicidal effect grade, P: Stellaria media (Stellaria media [10])","I: Avena fatua, herbicidal effect (criteria of Test Example 1) (Avena fatua)","G: Setaria viridis, herbicidal effect (criteria of Test Example 1) (Setaria viridis [11])","Herbicidal effect grade, F: Digitaria ciliaris (Digitaria ciliaris)","Herbicidal effect grade, Q: Galium spurium (Galium spurium)",further results
CON=C(C)CC1CC(OC(=O)COc2ccccc2)=C(c2c(C)cc(-c3ccccc3)cc2OC)C1=O (stereo not drawn) [6-100],5 (Herbicidal ratio of 90% or more (almost completely withered)),5 (Herbicidal ratio of 90% or more (almost completely withered)),5 (Herbicidal ratio of 90% or more (almost completely withered)),4 (Herbicidal ratio of 70% or higher and lower than 90%),3 (Herbicidal ratio of 40% or higher and lower than 70%),5 (Herbicidal ratio of 90% or more (almost completely withered)),5 (Herbicidal ratio of 90% or more (almost completely withered)),5 (Herbicidal ratio of 90% or more (almost completely withered)),5 (Herbicidal ratio of 90% or more (almost completely withered)),5 (Herbicidal ratio of 90% or more (almost completely withered)),3 (Herbicidal ratio of 40% or higher and lower than 70%),5 (Herbicidal ratio of 90% or more (almost completely withered)),5 (Herbicidal ratio of 90% or more (almost completely withered)),5 (Herbicidal ratio of 90% or more (almost completely withered)),5 (Herbicidal ratio of 90% or more (almost completely withered)),4 (Herbicidal ratio of 70% or higher and lower than 90%),5 (Herbicidal ratio of 90% or more (almost completely withered)),5 (Herbicidal ratio of 90% or more (almost completely withered)),5 (Herbicidal ratio of 90% or more (almost completely withered)),1 (Herbicidal ratio of 5% or higher and lower than 20%),"Effect grade on crop, a: transplanted rice plant (transplanted rice plant): 5 (Herbicidal ratio of 90% or more (almost completely withered)); f: beet, effect on crop (criteria of Test Example 1) (beet): 0 (Herbicidal ratio of 5% or lower (almost no effect)); herbicidal effect on D (Leptochloa chinensis), grade 0-5 (Leptochloa chinensis): 5 (Herbicidal ratio of 90% or more (almost completely withered))"
CON=C(C)CC1CC(O)=C(c2c(OC)cc(C)cc2OC)C1=O (stereo not drawn) [6-103],0 (Herbicidal ratio of 5% or lower (almost no effect)),4 (Herbicidal ratio of 70% or higher and lower than 90%),5 (Herbicidal ratio of 90% or more (almost completely withered)),0 (Herbicidal ratio of 5% or lower (almost no effect)),1 (Herbicidal ratio of 5% or higher and lower than 20%),0 (Herbicidal ratio of 5% or lower (almost no effect)),5 (Herbicidal ratio of 90% or more (almost completely withered)),5 (Herbicidal ratio of 90% or more (almost completely withered)),5 (Herbicidal ratio of 90% or more (almost completely withered)),5 (Herbicidal ratio of 90% or more (almost completely withered)),2 (Herbicidal ratio of 20% or higher and lower than 40%),5 (Herbicidal ratio of 90% or more (almost completely withered)),5 (Herbicidal ratio of 90% or more (almost completely withered)),5 (Herbicidal ratio of 90% or more (almost completely withered)),0 (Herbicidal ratio of 5% or lower (almost no effect)),0 (Herbicidal ratio of 5% or lower (almost no effect)),5 (Herbicidal ratio of 90% or more (almost completely withered)),5 (Herbicidal ratio of 90% or more (almost completely withered)),5 (Herbicidal ratio of 90% or more (almost completely withered)),0 (Herbicidal ratio of 5% or lower (almost no effect)),"Effect grade on crop, a: transplanted rice plant (transplanted rice plant): 5 (Herbicidal ratio of 90% or more (almost completely withered)); f: beet, effect on crop (criteria of Test Example 1) (beet): 0 (Herbicidal ratio of 5% or lower (almost no effect)); herbicidal effect on D (Leptochloa chinensis), grade 0-5 (Leptochloa chinensis): 5 (Herbicidal ratio of 90% or more (almost completely withered))"
CON=C(C)CC1CC(O)=C(c2c(C)cc(-c3cc(F)c(F)c(F)c3)cc2C)C1=O (stereo not drawn) [6-104],5 (Herbicidal ratio of 90% or more (almost completely withered)),4 (Herbicidal ratio of 70% or higher and lower than 90%),1 (Herbicidal ratio of 5% or higher and lower than 20%),5 (Herbicidal ratio of 90% or more (almost completely withered)),4 (Herbicidal ratio of 70% or higher and lower than 90%),4 (Herbicidal ratio of 70% or higher and lower than 90%),5 (Herbicidal ratio of 90% or more (almost completely withered)),5 (Herbicidal ratio of 90% or more (almost completely withered)),5 (Herbicidal ratio of 90% or more (almost completely withered)),5 (Herbicidal ratio of 90% or more (almost completely withered)),5 (Herbicidal ratio of 90% or more (almost completely withered)),5 (Herbicidal ratio of 90% or more (almost completely withered)),5 (Herbicidal ratio of 90% or more (almost completely withered)),5 (Herbicidal ratio of 90% or more (almost completely withered)),4 (Herbicidal ratio of 70% or higher and lower than 90%),3 (Herbicidal ratio of 40% or higher and lower than 70%),5 (Herbicidal ratio of 90% or more (almost completely withered)),5 (Herbicidal ratio of 90% or more (almost completely withered)),5 (Herbicidal ratio of 90% or more (almost completely withered)),4 (Herbicidal ratio of 70% or higher and lower than 90%),"Effect grade on crop, a: transplanted rice plant (transplanted rice plant): 5 (Herbicidal ratio of 90% or more (almost completely withered)); f: beet, effect on crop (criteria of Test Example 1) (beet): 4 (Herbicidal ratio of 70% or higher and lower than 90%); herbicidal effect on D (Leptochloa chinensis), grade 0-5 (Leptochloa chinensis): 5 (Herbicidal ratio of 90% or more (almost completely withered))"
